Data from US7026343B2, “Pharmacologic inhibition of Myc function” (University of Pittsburgh - of the Commonwealth System of …, priority 2002, dated 2006).

How the values were obtained:
[1] = system: Rat1a-c-Myc cells; test: Cell cycle profiles by propidium iodide flow cytometry; type: cell-based, rat; conditions: 24 h, concentrations of FIG. 4
Method: This assay was performed as previously described (Nesbit C. E., Grove L. E., Yin X. Y. and Prochownik E. V. (1998), Cell Growth Differ., 9:731–741; Nesbit C. E., Tersak J. M., Grove L. E., Drzal A., Choi H. and Prochownik E. V. (2000), Oncogene, 19:3200–3212; and Yin X. Y., Grove L., Datta N., Katula K., Long M. W. and Prochownik E. V. (2001), Cancer Res., 61:6487–6493). Cell cycle profiles were performed on propidium iodide-stained nuclei as previously described (Yin et al., (1999a)) using a Becton-Dickinson FACStar flow cytometer. A total of 2×10^4 cells were analyzed in triplicate for each point and quantitation was performed using single histogram statistics.
In contrast to c-Myc's promotion of cell cycle progression, its inhibition halts this process and results in an accumulation of cells in G0/G1 (Freytag S. O. (1988), Mol. Cell. Biol., 8:1614–1624; Prochownik et al., 1988 and deAlboran et al., 2001). Therefore, it was asked whether any of the above compounds could affect the cell cycle profiles of otherwise actively proliferating cells. Rat1a-c-Myc cells were plated at low concentrations and grown for 2 additional days until attaining approximately 30% confluency. The cells were then re-fed with fresh medium alone, medium containing DMSO only, or medium containing each of the Myc-Max-specific compounds. After 24 h, cells were harvested and cell cycle profiles were generated by flow cytometry following propidium iodide staining (Yin et al., 2001). […] In contrast, all of the compounds tested caused significant increases in the fraction of the G0/G1 population.

[2] = system: Rat1a-c-Myc cells; test: In vivo tumor growth of pre-treated Rat1a-c-Myc cells in nude mice; conditions: cells exposed 3 days to compound, then inoculated subcutaneously; no further compound
Method: All growth curves were performed in 12-well tissue culture plates as previously described (Yin et al., (1999b)). Rat1a-neo, Rat1a-c-Myc, and TGR-1 fibroblasts were seeded at an initial density of 2×10^3 cells/well whereas HO15.19 c-Myc KO cells were seeded at 5×10^3 cells/well. The following day, each compound, or DMSO vehicle alone, was added to the indicated final concentrations. Fresh medium and compound were added every 3–4 days. Cells were trypsinized and manually counted at the indicated times. […] For in vivo assays, Rat1a-c-Myc cells were grown to approximately 50% confluency. Fresh medium plus the indicated compounds, or DMSO vehicle alone, were then added to cells for an additional 3 days. At the end of this time, none of the cultures contained fewer than […] apoptotic cells as determined by trypan blue staining and TUNEL assays. The cells were then washed twice in PBS, trypsinized and resuspended in a minimal volume of fresh medium containing the same concentration of compound. In total, 2×10^7 cells were then inoculated subcutaneously into the flanks of nude mice (five animals per group) and no additional compound was administered for the duration of the experiment. Tumor growth was monitored weekly and the average tumor volume ([…].) was calculated as previously described (Yin X. Y., Grove E., Rogulski K. and Prochownik E. V., (2002), J. Biol. Chem., 277:19998–20010).
Rat1a-c-Myc cells form rapidly growing tumors in nude mice (Yin et al., 1999b). […] Rat1a-c-Myc cells were therefore exposed to the indicated Myc-Max-specific compounds for 3 days at the concentrations shown in FIG. 4. […] These cells were then inoculated into nude mice and monitored for tumor formation. Rat1a-c-Myc cells that had been incubated for 3 days in DMSO vehicle only served as a positive control.
Rat1a-c-Myc cells were exposed to the indicated Myc-Max-specific compounds for 3 days at the concentrations shown in FIG. 4, and then inoculated subcutaneously into the flanks of nude mice (five animals per group). Based on trypan blue staining, >95% of the inoculated cells were viable at the time of inoculation. Tumor growth was monitored and recorded weekly. Each point indicates the average tumor volume among the groups ±1 s.e.

O=[N+]([O-])c1ccc(CCNC2CC3CCC2C3)cc1 (stereo not shown) [#10009, bicyclo[2.2.1]hept-2-yl-[2-(4-nitro-phenyl)-ethyl]-amine]
% of cells in G0/G1 [1]: 66.3% | % of cells in G2/M [1]: 10.6% | % of cells in S [1]: 23.1% | inhibition of in vivo tumor growth [2]: inhibition of in vivo tumor growth

CCCOc1ccc(N2C(=O)CC(N3CCC(C(=O)O)CC3)C2=O)cc1 (stereo not shown) [#10031, 1-[2,5-dioxo-1-(4-propoxy-phenyl)-pyrrolidin-3-yl]-piperidine-4-carboxylic acid]
% of cells in G0/G1 [1]: 60.9% | % of cells in G2/M [1]: 5.2% | % of cells in S [1]: 33.9%

Cc1ccc2c(c1)C(=NNc1nc(C)c(C(=O)Nc3cccc([N+](=O)[O-])c3)s1)CC(c1ccccc1)O2 (stereo not shown) [#10050, 4-methyl-2-[N′-(6-methyl-2-phenyl-chroman-4-ylidene)-hydrazino]-thiazole-5-carboxylic acid (3-nitrophenyl)-amide]
% of cells in G0/G1 [1]: 58.7% | % of cells in G2/M [1]: 11.7% | % of cells in S [1]: 29.6% | inhibition of in vivo tumor growth [2]: inhibition of in vivo tumor growth

CCc1ccc(C=C2SC(=S)NC2=O)cc1 [#10058, 5-(4-ethyl-benzylidene)-2-thioxothiazolidin-4-one]
% of cells in G0/G1 [1]: 62.6% | % of cells in G2/M [1]: 13.7% | % of cells in S [1]: 23.7% | inhibition of in vivo tumor growth [2]: inhibition of in vivo tumor growth

O=C1CSC(=O)N1CC(O)Cn1c2ccc(Cl)cc2c2cc(Cl)ccc21 (stereo not shown) [#10074A4, 3-[3-(3,6-dichloro-carbazol-9-yl)-2-hydroxy-propyl]-thiazolidine-2,4-dione]
% of cells in G0/G1 [1]: 68.7% | % of cells in G2/M [1]: 9.8% | % of cells in S [1]: 21.5% | inhibition of in vivo tumor growth [2]: inhibition of in vivo tumor growth

O=[N+]([O-])c1ccc(Nc2ccccc2-c2ccccc2)c2nonc12 [#10074G4, biphenyl-2-yl-(7-nitro-benzo[1,2,5]oxadiazol-4-yl)-amine]
% of cells in G0/G1 [1]: 53.9% | % of cells in G2/M [1]: 7.4% | % of cells in S [1]: 38.7%

CCN(CC)C1CC(=O)N(c2cccc(Cl)c2)C1=O (stereo not shown) [#10075, 1-(3-Chloro-phenyl)-3-diethylamino-pyrrolidine-2,5-dione]
% of cells in G0/G1 [1]: 65.1% | % of cells in G2/M [1]: 10.7% | % of cells in S [1]: 24.2%
